This is an account of results in the supplement of paper PMC10307832.

Compound in this assay: O=C(O)c1ccc2c(c1)nc(Nc1cccc(Cl)c1)c1ccncc12 [Silmitasertib] + Cc1nc(NC(=O)N2CCC[C@H]2C(N)=O)sc1-c1ccnc(C(C)(C)C(F)(F)F)c1 [Alpelisib] (partner 2 µM)
Description: relative viability (nuclei count vs DMSO), 5 days (fraction); higher = more cells survive. The gist of the method:
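Lung cancer cell lines were pin-tool dosed in 1536-well plates on the day after seeding, with either a lone drug or a fixed anchor-drug dose plus five library-drug doses (not always all listed) in √10 steps. Nuclei were counted on 4× images after 5 days. Relative viability is the ratio of treated-well to vehicle-well nuclei counts, with each value a median of duplicate plates.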

In the case of NCI-H838, the relative viability (first compound 0.04 µM) was found to be 1.05, the relative viability (first compound 1.265 µM) is 0.967 and the relative viability (first compound 4 µM) came out at 0.556.
For the cell line NCI-H3122, the relative viability by setting is: (first compound 0.04 µM) 0.784; (first compound 0.4 µM) 0.726; (first compound 1.265 µM) 0.902; (first compound 4 µM) 0.969.
Turning to SK-MES-1, the relative viability (first compound 0.04 µM) is 0.87, the relative viability (first compound 0.4 µM) stood at 0.896, the relative viability (first compound 1.265 µM) worked out at 0.788 and the relative viability (first compound 4 µM) is 0.446.
NCI-H1944: the relative viability (first compound 0.04 µM) came out at 0.892, the relative viability (first compound 0.4 µM) turned out to be 0.765, the relative viability (first compound 1.265 µM) was determined as 0.774 and the relative viability (first compound 4 µM) came to 0.884.
LK-2: the relative viability reads like this: (first compound 0.04 µM) 1.28; (first compound 0.4 µM) 0.921; (first compound 1.265 µM) 0.914; (first compound 4 µM) 0.943.
Consider PC-3 [JPC-3], for which the relative viability (first compound 0.04 µM) is 1.02, the relative viability (first compound 0.4 µM) stood at 0.79, the relative viability (first compound 1.265 µM) was 1.01 and the relative viability (first compound 4 µM) stood at 1.
Take COR-L23: the relative viability was found to be 0.843 (first compound 0.04 µM), 0.788 (first compound 0.4 µM), 0.759 (first compound 1.265 µM) and 0.586 (first compound 4 µM).
As to NCI-H1355, the relative viability was 0.911 (first compound 0.04 µM), 0.721 (first compound 1.265 µM) and 0.766 (first compound 4 µM).
With NCI-H460, the relative viability reads like this: (first compound 0.04 µM) 0.488; (first compound 0.4 µM) 0.512; (first compound 1.265 µM) 0.466; (first compound 4 µM) 0.421.
The corresponding values for NCI-H1993 are 0.662, 0.602, 0.617 and 0.688.
The corresponding values for HCC-15 are 0.972, 0.683, 0.618 and 0.45.
Take NCI-H23: the relative viability (first compound 0.04 µM) was 0.762, the relative viability (first compound 1.265 µM) was found to be 0.67 and the relative viability (first compound 4 µM) was found to be 0.547.
Consider NCI-H1395, for which the relative viability is 1.15 (first compound 0.04 µM), 0.728 (first compound 0.4 µM), 1.03 (first compound 1.265 µM) and 0.965 (first compound 4 µM).
The corresponding values for NCI-H1666 are 1.03, 0.781, 0.61 and 0.505.
The corresponding values for NCI-H2405 are 0.935, 0.688, 0.639 and 0.775.
Consider NCI-H2009, for which the relative viability (first compound 0.04 µM) is 1.17, the relative viability (first compound 0.4 µM) came to 1.03, the relative viability (first compound 1.265 µM) worked out at 1.03 and the relative viability (first compound 4 µM) amounted to 0.707.
With HCC-78, the relative viability (first compound 0.04 µM) worked out at 0.417, the relative viability (first compound 0.4 µM) was determined as 0.243, the relative viability (first compound 1.265 µM) turned out to be 0.268 and the relative viability (first compound 4 µM) is 0.319.
The corresponding values for NCI-H2170 are 0.805, 0.648, 0.697 and 0.771.
Consider NCI-H1793, for which the relative viability came to 0.694 (first compound 0.04 µM), 0.619 (first compound 0.4 µM), 0.656 (first compound 1.265 µM) and 0.564 (first compound 4 µM).
Turning to HCC-366, the relative viability runs as follows: (first compound 0.04 µM) 0.453; (first compound 1.265 µM) 0.317; (first compound 4 µM) 0.383.
Turning to NCI-H1651, the relative viability runs as follows: (first compound 0.04 µM) 0.951; (first compound 0.4 µM) 1.03; (first compound 1.265 µM) 0.952; (first compound 4 µM) 0.86.
Take LC-2-ad: the relative viability is, setting by setting: (first compound 0.04 µM) 0.78; (first compound 0.4 µM) 0.87; (first compound 1.265 µM) 0.783; (first compound 4 µM) 0.827.
As for HCC-827, the relative viability (first compound 0.04 µM) stood at 1.03, the relative viability (first compound 1.265 µM) was 1.07 and the relative viability (first compound 4 µM) is 1.03.
For the cell line SK-LU-1, the relative viability by setting is: (first compound 0.04 µM) 1.09; (first compound 0.4 µM) 0.836; (first compound 1.265 µM) 0.413; (first compound 4 µM) 0.27.
For ABC-1, the relative viability (first compound 0.04 µM) stood at 1.11, the relative viability (first compound 0.4 µM) turned out to be 0.832, the relative viability (first compound 1.265 µM) came out at 0.546 and the relative viability (first compound 4 µM) amounted to 0.381.
As for NCI-H1703, the relative viability by setting is: (first compound 0.04 µM) 0.334; (first compound 0.4 µM) 0.312; (first compound 1.265 µM) 0.392; (first compound 4 µM) 0.452.
Regarding COR-L 105, the relative viability by setting is: (first compound 0.04 µM) 1.16; (first compound 0.4 µM) 1.06; (first compound 1.265 µM) 0.803; (first compound 4 µM) 0.664.
Turning to LOU-NH91, the relative viability (first compound 0.04 µM) was 0.8, the relative viability (first compound 0.4 µM) was found to be 0.614, the relative viability (first compound 1.265 µM) came out at 0.612 and the relative viability (first compound 4 µM) came out at 0.593.
Take NCI-H661: the relative viability is, setting by setting: (first compound 0.04 µM) 0.784; (first compound 1.265 µM) 0.547; (first compound 4 µM) 0.338.
LU99A: the relative viability was determined as 0.502 (first compound 0.04 µM), 0.521 (first compound 0.4 µM), 0.399 (first compound 1.265 µM) and 0.471 (first compound 4 µM).
The corresponding values for SW 1573 are 0.758, 0.588, 0.723 and 0.504.
Take HOP-62: the relative viability (first compound 0.04 µM) came out at 1.03, the relative viability (first compound 1.265 µM) turned out to be 0.867 and the relative viability (first compound 4 µM) was 0.678.
Regarding UMC-11, the relative viability by setting is: (first compound 0.04 µM) 1.03; (first compound 0.4 µM) 0.994; (first compound 1.265 µM) 1; (first compound 4 µM) 0.627.
Turning to LCLC-103H, the relative viability runs as follows: (first compound 0.04 µM) 0.995; (first compound 0.4 µM) 1.01; (first compound 1.265 µM) 0.971; (first compound 4 µM) 0.939.
NCI-H1734: the relative viability runs as follows: (first compound 0.04 µM) 0.688; (first compound 1.265 µM) 0.649; (first compound 4 µM) 0.66.
